What was measured:
SIRT2 [1] = biological target: T1, SIRT2 (Homo sapiens, UniProt Q8IXJ6); test: Fluorescent deacetylation assay, SIRT2
T1 sequence (Q8IXJ6 1-389): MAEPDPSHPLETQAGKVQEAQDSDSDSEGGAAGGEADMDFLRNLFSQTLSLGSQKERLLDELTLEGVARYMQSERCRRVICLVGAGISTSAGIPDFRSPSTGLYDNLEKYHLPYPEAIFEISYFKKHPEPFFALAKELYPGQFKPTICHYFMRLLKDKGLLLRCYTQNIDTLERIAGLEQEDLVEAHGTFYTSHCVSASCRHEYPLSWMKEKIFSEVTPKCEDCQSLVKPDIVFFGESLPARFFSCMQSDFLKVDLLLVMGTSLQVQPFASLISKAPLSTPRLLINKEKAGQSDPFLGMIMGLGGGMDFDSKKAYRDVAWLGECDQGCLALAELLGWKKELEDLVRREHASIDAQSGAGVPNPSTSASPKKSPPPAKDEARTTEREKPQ

SIRT6 = SIRT6 (Homo sapiens, UniProt Q8N6T7); test: Fluorescent deacetylation assay, SIRT6
[2] = Stability of DMSO solution by mass spectrometry; settings: nine months, refrigerator 4 °C
SIRT5 = biological target: T2, SIRT5 (Homo sapiens, UniProt Q9NXA8); test: Fluorescent deacylation assay (succinyl-peptide), SIRT5
T2 sequence (Q9NXA8 37-310): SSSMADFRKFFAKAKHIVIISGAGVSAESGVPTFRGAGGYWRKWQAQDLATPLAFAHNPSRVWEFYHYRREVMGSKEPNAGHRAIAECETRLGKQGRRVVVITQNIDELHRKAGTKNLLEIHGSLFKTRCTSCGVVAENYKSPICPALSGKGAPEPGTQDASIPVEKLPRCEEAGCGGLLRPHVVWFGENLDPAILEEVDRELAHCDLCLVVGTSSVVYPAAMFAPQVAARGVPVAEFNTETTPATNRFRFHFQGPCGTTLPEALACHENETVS

[3] = Stability in the assay buffer and activity assay by HPLC; settings: overall statement
SH-SY5Y cells = test: MTT assay for toxicity; format: cell-based; settings: 24 hours
Protocol: To evaluate the toxicity of the compounds, we carried out MTT assays on SH-SY5Y
cells incubated with various concentrations of compounds 4 and 15 for 24 hours. We […]

SIRT1 [4] = biological target: T3, SIRT1 (Homo sapiens, UniProt Q96EB6); test: Fluorescent deacetylation assay, SIRT1; format: biochemical; settings: 0.8 μM SIRT1, 10 μM acetyl-peptide, 1.2 mM NAD+
T3 construct: Human SIRT1 (183-505-(GGGS)2-641-665); His6 with sumo-cleavage site (N); made in house; host or cells: E. coli BL21
T3 sequence (Q96EB6 with tags, fused parts or gaps): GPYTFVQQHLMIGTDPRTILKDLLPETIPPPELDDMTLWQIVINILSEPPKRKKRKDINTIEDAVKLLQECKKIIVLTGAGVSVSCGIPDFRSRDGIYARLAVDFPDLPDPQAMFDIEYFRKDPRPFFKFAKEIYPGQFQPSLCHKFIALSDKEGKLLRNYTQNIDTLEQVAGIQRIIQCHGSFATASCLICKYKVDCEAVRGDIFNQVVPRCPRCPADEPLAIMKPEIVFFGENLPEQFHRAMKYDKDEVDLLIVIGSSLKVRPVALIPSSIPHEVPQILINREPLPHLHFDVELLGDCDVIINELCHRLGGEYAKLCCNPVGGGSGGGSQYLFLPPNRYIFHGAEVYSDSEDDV
Protocol: All compounds were dissolved in 10 mM stock solution in DMSO. […] The fluorescence was measured using a microplate reader (SpectraMax M5, Molecular Devices, San Jose, CA, USA) with excitation at 320 nm and emission at 420 nm. All reactions were done in triplicate.
IC50 were determined for other sirtuins using the same assay as for SIRT3.

SIRT3 = biological target: T4, SIRT3 (Homo sapiens, UniProt Q9NTG7); test: Fluorescent deacetylation assay with internally quenched acetyl peptide and trypsin development, SIRT3
T4 sequence (Q9NTG7 118-399): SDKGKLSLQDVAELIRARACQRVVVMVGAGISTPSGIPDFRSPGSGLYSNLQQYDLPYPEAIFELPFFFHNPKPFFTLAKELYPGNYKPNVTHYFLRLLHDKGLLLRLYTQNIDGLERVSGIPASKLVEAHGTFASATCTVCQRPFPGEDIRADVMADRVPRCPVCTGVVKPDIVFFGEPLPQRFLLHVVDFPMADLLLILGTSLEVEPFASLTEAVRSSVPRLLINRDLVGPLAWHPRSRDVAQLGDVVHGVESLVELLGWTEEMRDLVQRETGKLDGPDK

SIRT2 [5] = settings: Figure 1, reported sirtuin inhibitors; cited from earlier work
SIRT1 [6] = settings: Figure 1, reported sirtuin inhibitors; cited from earlier work

Sequence of SIRT6 (Q8N6T7 whole entry): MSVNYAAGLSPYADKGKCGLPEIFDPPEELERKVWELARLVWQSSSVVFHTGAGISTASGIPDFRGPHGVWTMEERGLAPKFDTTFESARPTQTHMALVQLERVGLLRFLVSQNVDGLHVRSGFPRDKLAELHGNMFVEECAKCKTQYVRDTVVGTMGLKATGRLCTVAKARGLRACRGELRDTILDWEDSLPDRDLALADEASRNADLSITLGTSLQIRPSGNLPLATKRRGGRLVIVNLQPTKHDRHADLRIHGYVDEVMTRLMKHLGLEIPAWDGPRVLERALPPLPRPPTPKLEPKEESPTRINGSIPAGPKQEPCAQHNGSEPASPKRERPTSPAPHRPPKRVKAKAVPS

Row | SMILES | IC50 (SIRT2 [1]) [nM] | IC50 (SIRT6) [nM] | IC50 (SIRT5) [nM] | melting point [°C] | IC50 (SIRT1 [4]) [µM] | IC50 (SIRT3) [nM] | also measured
1 | CCn1c(=O)c2[nH]c(SSc3nc4c([nH]3)c(=O)n(CC)c(=O)n4CC)nc2n(CC)c1=O [Compound 1, 8,8′-Disulfanediylbis(1,3-diethyl-3,7-dihydro-1H-purine-2,6-dione)] | 1170 ± 40 | 116000 ± 6200 | 420 ± 10 |  |  |  | Stability in DMSO [2]: remains stable; Stability in the activity assays [3]: stable in the activity assays
2 | CCCn1c(=O)c2[nH]c(SSc3nc4c([nH]3)c(=O)n(CCC)c(=O)n4CCC)nc2n(CCC)c1=O [Compound 4, 8,8’-Disulfanediylbis(1,3-dipropyl-3,7-dihydro-1H-purine-2,6-dione)] | 1190 ± 60 | 129000 ± 16100 | 390 ± 30 | 241 to 243 |  |  | Toxicity (MTT) at 50 μM (SH-SY5Y cells): displayed toxicity; Toxicity (MTT) at concentrations up to 20 μM (SH-SY5Y cells): nontoxic
3 | CCn1c(=O)n(CC(C)C)c(=O)c2[nH]c(SSc3nc4c([nH]3)c(=O)n(CC(C)C)c(=O)n4CC)nc21 [Compound 12, 8,8’-Disulfanediylbis(3-ethyl-1-isobutyl-3,7-dihydro-1H-purine-2,6-dione)] | 4860 ± 80 | 297000 ± 11300 | 1510 ± 100 | 240 to 242 | 0.43 ± 0.03 | 1770 ± 50 | 
4 | CCn1c(=O)n(CC2CCOCC2)c(=O)c2[nH]c(SSc3nc4c([nH]3)c(=O)n(CC3CCOCC3)c(=O)n4CC)nc21 [Compound 13, 8,8’-Disulfanediylbis(3-ethyl-1-((tetrahydro-2H-pyran-4-yl)methyl)-3,7-dihydro-1H-purine-2,6-dione)] | 2250 ± 120 | 156000 ± 6500 | 500 ± 10 | 229 to 231 |  |  | 
5 | CCn1c(=O)n(CC2CCCO2)c(=O)c2[nH]c(SSc3nc4c([nH]3)c(=O)n(CC3CCCO3)c(=O)n4CC)nc21 (stereo not drawn) [Compound 14, 8,8’-Disulfanediylbis(3-ethyl-1-((tetrahydrofuran-2-yl)methyl)-3,7-dihydro-1H-purine-2,6-dione)] | 1620 ± 50 | 127000 ± 10200 | 540 ± 20 | 166 to 168 | 0.15 ± 0.02 | 690 ± 120 | Fold enhanced activity compared to compound 12 (SIRT3) (SIRT3; relative to compound 12): 2.5 fold
6 | CCn1c(=O)n(CCc2ccccc2)c(=O)c2[nH]c(SSc3nc4c([nH]3)c(=O)n(CCc3ccccc3)c(=O)n4CC)nc21 [Compound 15, 8,8’-Disulfanediylbis(3-ethyl-1-phenethyl-3,7-dihydro-1H-purine-2,6-dione)] | 1350 ± 50 | 103000 ± 6300 | 450 ± 10 | 225 to 227 |  |  | Toxicity (MTT) at 50 μM (SH-SY5Y cells): displayed toxicity; Toxicity (MTT) at concentrations up to 20 μM (SH-SY5Y cells): nontoxic; Stability in the activity assays [3]: stable
7 | CCn1c(=O)n(CCc2ccc(F)cc2)c(=O)c2[nH]c(SSc3nc4c([nH]3)c(=O)n(CCc3ccc(F)cc3)c(=O)n4CC)nc21 [Compound 16, 8,8’-Disulfanediylbis(3-ethyl-1-(4-fluorophenethyl)-3,7-dihydro-1H-purine-2,6-dione)] | 2030 ± 40 | 111000 ± 2600 | 840 ± 80 | 216 to 218 | 0.19 ± 0.01 | 460 ± 40 | 
8 | CCn1c(=O)n(CCc2ccc(NC(=O)OC(C)(C)C)cc2)c(=O)c2[nH]c(SSc3nc4c([nH]3)c(=O)n(CCc3ccc(NC(=O)OC(C)(C)C)cc3)c(=O)n4CC)nc21 [Compound 17, di-tert-Butyl(((Disulfanediylbis(3-ethyl-2,6-dioxo-2,3,6,7-tetrahydro-1H-purine-8,1-diyl))bis(ethane-2,1-diyl))bis(4,1-phenylene))dicarbamate] | 2190 ± 80 | 128000 ± 4100 | 1000 ± 30 | 168 to 171 | 0.41 ± 0.04 | 1150 ± 80 | 
9 | CCn1c(=O)n(CCc2ccc(OC)cc2)c(=O)c2[nH]c(SSc3nc4c([nH]3)c(=O)n(CCc3ccc(OC)cc3)c(=O)n4CC)nc21 [Compound 18, 8,8’-Disulfanediylbis(3-ethyl-1-(4-methoxyphenethyl)-3,7-dihydro-1H-purine-2,6-dione)] | 2160 ± 80 | 102000 ± 9100 |  | 216 to 219 |  |  | 
10 | CCn1c(=O)n(CCC(=O)Nc2cccc(C(F)(F)F)c2)c(=O)c2[nH]c(SSc3nc4c([nH]3)c(=O)n(CCC(=O)Nc3cccc(C(F)(F)F)c3)c(=O)n4CC)nc21 [Compound 19, 3,3’-(Disulfanediylbis(3-ethyl-2,6-dioxo-2,3,6,7-tetrahydro-1H-purine-8,1-diyl))bis(N-(3-(trifluoromethyl)phenyl)propanamide)] | 9440 ± 190 | 452000 ± 9800 | 26100 ± 3150 | 174 to 175 | 1.87 ± 0.04 | 8520 ± 220 | Fold reduced inhibitory activity compared with 15 (SIRT3) (SIRT3; relative to compound 15): 23 fold
11 | CCn1c(=O)n(CCc2ccc(N)cc2)c(=O)c2[nH]c(SSc3nc4c([nH]3)c(=O)n(CCc3ccc(N)cc3)c(=O)n4CC)nc21 [Compound 20, 8,8’-Disulfanediylbis(1-(4-aminophenethyl)-3-ethyl-3,7-dihydro-1H-purine-2,6-dione)] | 4610 ± 130 | 210000 ± 5900 | 920 ± 40 |  | 0.49 ± 0.01 | 970 ± 60 | 
12 | CS(=O)(=O)NCCC1CCN(c2ncnc3cc(C(N)=O)sc23)CC1 [ELT-31, reference compound] | 120 ± 10 | 462000 ± 14900 | > 500000 |  |  |  | 
14 | CC(C(=O)Nc1cccc(/N=C/c2c(O)ccc3ccccc23)c1)c1ccccc1 (stereo not drawn) [salermide] |  |  |  |  |  |  | IC50 (SIRT1 [6]): 76000 nM; IC50 (SIRT2 [5]): 45000 nM
15 | Cc1ccc(C(=O)Nc2ccc(S(=O)(=O)O)c3cc(S(=O)(=O)O)cc(S(=O)(=O)O)c23)cc1NC(=O)c1cccc(NC(=O)Nc2cccc(C(=O)Nc3cc(C(=O)Nc4ccc(S(=O)(=O)O)c5cc(S(=O)(=O)O)cc(S(=O)(=O)O)c45)ccc3C)c2)c1 [suramin] |  |  |  |  |  |  | IC50 (SIRT2 [5]): 1200 nM
